Measurements: patent publication EP4129284B1, “SERTACONAZOL FOR PROVIDING A SPORISTATIC AND/OR SPORICIDAL EFFECT” (Dr. Pfleger Arzneimittel GmbH, priority 2021, dated 2023)

Legend:
E. floccosum = test: Full skin model infected with spores, treatment, histology; format: cell-based, Epidermophyton floccosum; settings: 48 h and 72 h, sertaconazol 0.010, ciclopiroxolamin 400, terbinafin 0.200 µg/mL
Description: (§1) For an application in vivo, there is the additional requirement for the antimycotic substances to evoke a targeted antimycotic activity in the presence of human cells. Thus, 3D-cell-cultures such as full skin models are used to simulate the in vivo conditions. Such full skin models are for example described in Reddersen K, Wiegand C, Elsner P, Hipler UC. Three-dimensional human skin model infected with Staphylococcus aureus as a tool for evaluation of bioactivity and biocompatibility of antiseptics. Int J Antimicrob Agents. 2019; 54(3):283-291; Wiegand C, Fink S, Beier O, Horn K, Pfuch A, Schimanski A, Grünler B, Hipler UC, Elsner P. Dose- and Time-Dependent Cellular Effects of Cold Atmospheric Pressure Plasma Evaluated in 3D Skin Models. Skin Pharmacol Physiol. 2016;29(5):257-265. Particularly, such full skin models are made of a collagen matrix, which is colonized with primary human fibroblasts, and a fully differentiated epidermis made of primary human keratinocytes. For the experiments, the model is infected in vitro with spores, such that a determination of the sporistatic or sporicidal influence of the substances to be examined at in vivo relevant conditions is allowed. Compared to a 2D-model, the 3D full skin model has the advantage that the cells are in their natural three-dimensional surrounding and show a corresponding behaviour. Such, the antimycotic and sporistatic or sporicidal effects can be examined in situ and in the presence of human cells.
(§2) The spore suspensions and the solutions of sertaconazol, ciclopiroxolamin and terbinafin were prepared as in Example 1, wherein the respective test concentrations were obtained by diluting these solutions in ultrapure water (WFI; Fresenius Kabi) instead of SGB (Merck). Full skin models were produced as previously described [Reddersen K, Wiegand C, Elsner P, Hipler UC. […] 2019; 54(3):283-291; Wiegand C, Fink S, Beier O, Horn K, Pfuch A, Schimanski A, Grünler B, Hipler UC, Elsner P. Dose- and Time-Dependent Cellular Effects of Cold Atmospheric Pressure Plasma Evaluated in 3D Skin Models. […]

S. brevicaulis = test: Full skin model infected with spores, treatment, histology (PAS-staining); format: cell-based, Scopulariopsis brevicaulis; settings: 48 h and 72 h, sertaconazol 100, ciclopiroxolamin 400, terbinafin 100 µg/mL, Fig. 6, stated as 'the same applies' as for E. floccosum
Description: as §1, §2

| SMILES | outgrowth of E. floccosum (E. floccosum) | outgrowth of S. brevicaulis (S. brevicaulis) |
| --- | --- | --- |
| Cc1cc(C2CCCCC2)n(O)c(=O)c1 [Ciclopiroxolamin, ciclopiroxolamin] | only reduced | only reduced |
| Clc1ccc(C(Cn2ccnc2)OCc2csc3c(Cl)cccc23)c(Cl)c1 (stereo not drawn) [Sertaconazol, sertaconazol] | inhibited | inhibited |
| CN(C/C=C/C#CC(C)(C)C)Cc1cccc2ccccc12 [Terbinafin, terbinafin] | only reduced | only reduced |
